Data reported in a melting point compilation (Tetko et al.; mined from patent text by program, amines drawn as free bases though some values may be those of a salt).

SMILES	melting point [°C]
CS(=O)(=O)NC(=O)C1(CCCCCCCCCCCCC2(C(=O)O)CC2)CC1	97.5 to 99.4
O=c1[nH]c2cc(Cl)ccc2c(=O)n1CCCN1CC=C(c2ccc(Cl)cc2)CC1	225 to 227
COCC1CC(Cn2ccnc2)(c2ccc(Cl)cc2)N(C)O1 (centres undefined)	123 to 126
CCC1OCC(O)CO1 (centres undefined)	62 to 68.5
CC1CC(=O)NN=C1c1ccc(N2CCNCC2)c(N)c1 (centres undefined)	244 to 245
Fc1ccc(-c2ncncc2CCN2CCC(c3csc4cc(F)ccc34)CC2)cc1	123 to 124
CC(C)(C)N(CC(=O)O)C(=O)C(NC(=O)c1ccccc1)SC(=O)c1ccccc1 (centres undefined)	157 to 160
Cc1nc2ccc(C(=O)NS(=O)(=O)c3ccccc3)nc2n1Cc1ccc(CCc2ccccc2)cc1Cl	180 to 181
COc1ccc(C2CN(O)C3(C)CCCCC23)cc1OC (centres undefined)	147 to 149
CCOc1nc2nc(C(OC(C)=O)C3(Br)C(=O)N4C(C(=O)OCc5ccc([N+](=O)[O-])cc5)=CSC43)cn2c2c1CCC2 (centres undefined)	119
CC(=O)c1cc(F)ccc1Oc1nc2ccc(N=[N+]=[N-])cc2cc1Cc1ccccc1	127 to 130
CCS(=O)(=O)c1sc(S(N)(=O)=O)cc1C(C)NC(C)=O (centres undefined)	213 to 220
C#CCCn1nnc2cc3c(=O)n(C(C)Cn4ncnn4)nnc3cc2c1=O (centres undefined)	185 to 188
O=C(Nc1cccc(S(=O)(=O)N2CCOCC2)c1)c1cnn2c(C(F)(F)F)cc(-c3ccc(C(F)(F)F)cc3)nc12	233
COc1cc(OCc2nccs2)ccc1/C=C/c1cc(/C=C/c2ccc3cc[nH]c3c2)n[nH]1	229 to 237
CNc1nc(C)c(-c2nc3ccccc3c(=O)n2-c2ccccc2Cl)s1	214 to 215
c1ccc(Oc2cccc(CSc3nc4cnccc4[nH]3)c2)cc1	156 to 158
Cc1oc(-c2ccccc2)nc1COc1ccc(/C=C/C=O)cn1	147 to 148
O=C1CCC(N2C(=O)c3ccc(CNC(=O)NC4CCCCC4)cc3C2=O)C(=O)N1 (centres undefined)	208 to 210
Fc1ccc(Cn2c(SC3CCNCC3)nc3cncnc32)cc1	114
CC1(C)Cc2cc3c(cc2O1)OCC31C(=O)N(CC(=O)Nc2ccccc2F)c2cccc(-c3cncnc3)c21 (centres undefined)	> 250
CCCCCOC(=O)Cc1sc(F)c(N=c2sc(=O)n3n2CCCC3)c1Cl	39 to 41
CCOP(=O)(Cc1ccc(NC(=O)CCc2cnoc2-c2ccc(Cl)cc2)cc1)OCC	138 to 139
CN(C)CC1Cc2ccccc2N(S(C)(=O)=O)C1 (centres undefined)	69 to 70
COC(=O)[C@H](CSC(=O)N(C)C)NC(C)=O	119 to 121

SMILES	melting point [°C]
CCn1c2ccc(C=O)cc2c2c3ccccc3ccc21	143 to 144
CCCCCCCCCCCCCCCCS(=O)(=O)OC1CN(C2CCC3(C)C(CCC4C3CCC3(C)C(C(C)CCCC(C)C)CCC43)C2)C1 (centres undefined)	64.5 to 68
CC(C)c1cc(C(C)C)c(CC(=O)c2ccc(-c3ccccc3)c(OS(N)(=O)=O)c2-c2ccccc2)c(C(C)C)c1	129 to 132
CC(C)c1cc(C(C)C)c(C(O)C(=O)c2ccc(C(C)C)c(OS(N)(=O)=O)c2C(C)C)c(C(C)C)c1 (centres undefined)	96 to 101
CC1(C)CC(NC(=O)CCC(C)(c2ccc(O)c(C(C)(C)C)c2)c2ccc(O)c(C(C)(C)C)c2)CC(C)(C)N1	110
O=C1C2=C(CCCC2)C(=O)N1c1cc(OCC2=CCCSC2)c(Cl)cc1F	134 to 137
N#CCC1CC(=O)N(c2ccc(F)cc2)C1=O (centres undefined)	97
COc1cc(OC)cc(N2CCN(C(=S)Nc3nc(C)c(C)nc3OC)CC2)c1	71 to 73
CC(C)Oc1nccc(-c2c(-c3ccc(F)cc3)ncn2C2CCC(=O)CC2)n1	161 to 163
CC(=O)OCC1=NC(NC(=O)Nc2cccc(C)c2)C(=O)N(CC(=O)N2CCCCCCC2)c2c(C)cccc21 (centres undefined)	112 to 114
O=C(O)CCS(=O)(=O)O	74.6
CCCC(=O)N(Cc1cccc2c1S(=O)(=O)N=C2C1=C(O)C(C(C)(C)C)N(Cc2ccc(F)c(C)c2)C1=O)S(C)(=O)=O (centres undefined)	226
Cc1cc(C)n2ncc(I)c2n1	120 to 122
CCCCC(CC)COC(=O)C=CC(=O)NC(N)=O (centres undefined)	73 to 76
Cc1c[nH]c2c1C(=O)CC(c1cccs1)C2 (centres undefined)	195 to 196
Nc1ccccc1Nc1ccc(C(c2ccc(Nc3ccccc3N)cc2)(C(F)(F)F)C(F)(F)F)cc1	150 to 152
COc1ccc(C2(C(C)(C)O)CCN(C)CC2)cc1	114 to 115
Nc1nc2ccc(Cl)nc2c(=O)[nH]1	> 330
CC(C)=CCN1Cc2c(Br)ccc3[nH]c(=S)n(c23)C[C@@H]1C	161
O=c1cnc2c(NC(CO)CO)nc(SCc3cccc(C(F)(F)F)c3F)nc2[nH]1	244 to 245
C(=Cc1ccc2cc(C=Cc3ccccc3)ccc2c1)c1ccccc1	291
C=CCN(CC=C)C(=O)n1cnc(S(=O)CC)n1 (centres undefined)	41 to 43
CC(C)Cn1nc(-c2ccccc2)cc(COS(C)(=O)=O)c1=O	130
CC(C)c1cccc(C(C)C)c1NC(=O)N(c1ccccc1)c1nnn(CCCCCCCC=O)n1	104 to 106
CC(=O)OC[C@H]1OC(O)[C@H](OC(C)=O)[C@@H](F)[C@@H]1OC(C)=O (some centres undefined)	115 to 120

Further lines, results first:

melting point [°C]	SMILES
104 to 105	COC(=O)COc1ccc(CCN2CCN(c3ccncc3)CC2)cc1
241 to 242	O=C(O)c1cccc(-c2nc(-c3cc(Cl)sc3Cl)cs2)c1
75 to 79	COCOc1c(OC)cc(C(=O)C(=O)O)c2cccc(Cc3ccccc3)c12
152 to 155	O=C(O)C(=O)c1cn2c3c(cccc13)CCC2
156	COc1cc(N(C)C(C)C)ccc1CN1C(=O)C(C)(c2ccccc2Cl)c2cc(Cl)ccc21 (centres undefined)
277 to 284	O=C(O)c1nnc(-c2ccc(Cl)cc2)o1
160 to 162	COc1ccc2c(c1)CN(C(=O)N(C)C)N=C2Cc1c(Cl)cncc1Cl
282	CN(C)Cc1ccc2c(c1)nnn2Cc1c(Cl)c(Cl)cc2[nH]c(=O)c(=O)[nH]c12
188 to 189	Oc1ccc(-n2nc3ccc(Cl)cc3n2)c(O)c1
145	COc1cc(C(=O)NS(=O)(=O)c2ccccc2)ccc1Cc1nn(C)c2ccc(NC(=O)OC3CCCC3)cc12
54 to 56	N=C(N)c1ccc2c(c1)C(CCNC(=O)c1ccc(-c3ccccn3)s1)CO2 (centres undefined)
298	CSc1ccc(C(=O)NN=C2C(=O)Nc3ccc(I)cc32)cc1
151 to 152	COc1ccc(C(=O)N2c3ccc(OC)cc3CC2C(=O)O)cc1 (centres undefined)
124 to 125	CN1C(=O)N2CCOC2(c2ccccc2)c2cc(Cl)ccc21 (centres undefined)
117 to 118	CC(=O)SC(CC(=O)c1ccc(Oc2ccc(Br)cc2)cc1)C(=O)O (centres undefined)
262 to 269	CNC(=O)c1ccccc1Nc1nc(Nc2ccc3c(c2)CCC(=O)CC3)ncc1Cl
125	O=C(O)C1=C(CCl)CS[C@@H]2[C@H](NC(=S)Cc3cc(Cl)ccc3Cl)C(=O)N12
> 250	CS(=O)(=O)Nc1cc2occ(C(=O)Nc3nnn[nH]3)c(=O)c2cc1Oc1ccccc1
127 to 128	COc1ccccc1C1SCCCS1
135 to 136	COC(=O)c1ccc(C(F)F)nc1C
118 to 119	NC(=O)N(O)Cc1ccc(C(O)C#Cc2cccc(Cl)c2)cc1 (centres undefined)
375 to 377	NC(=O)c1nc(-c2cccc(O)c2)nc2c1[nH]c(=O)n2-c1ccc(Cl)cc1Cl
183 to 188	CC(=O)Nc1cccc(-c2cnc(N(C)C)nc2)c1
80	CN(C(=O)OCc1ccccc1)[C@H]1CNc2ccccc2C1
198 to 201	O=c1ccoc(C=Cc2ccc(O)cc2)c1

melting point [°C]	SMILES
75.5 to 76.5	CC(=O)c1ccc(F)c(N(C)C(C)=O)c1
183 to 185	CC(C)N1C(=O)NC(c2ccc3c(c2)CCO3)c2cc3c(cc21)OCO3 (centres undefined)
156 to 158	COc1ccc(N2C[C@@](C)(COC(=O)c3ccc([N+](=O)[O-])cc3)OC2=O)cc1
132 to 133	CCn1c(=O)sc2cc(N)ccc21
326 to 328	O=C(Nc1cccnc1)c1nnc2ccccc2c1O
98 to 99	O=C(Cc1ccc(Cl)cc1)c1cccs1
73 to 74	N#CCNC(=O)C(Cl)c1ccccc1 (centres undefined)
182 to 184	NC(=O)c1ncn2c1NCC=C2c1cccc(Cl)c1
189 to 190	CCOC(=O)C(Cc1cccc(OC)c1Oc1ccc([N+](=O)[O-])cc1)(NC(C)=O)C(=O)OCC
283 to 285	COc1nc2cc(Cl)c(Cl)cc2nc1NS(=O)(=O)c1cccc(Cl)c1Cl
171 to 174	CC(C)(O)C(=O)Nc1ccc(Nc2ccccc2)cc1
< 40	CCCCCN1OCCN(c2ccc(Cl)c(Cl)c2)C1=O
143 to 145	Cc1nc(-c2ccccc2)cc(-c2cccc([N+](=O)[O-])c2)c1C(=O)NCCN(C)C
218 to 221	Cc1c(Cl)cc(C(=O)O)c(Cl)c1N
206 to 208	COC(=O)C(C(=O)N1CCOCC1)C(c1ccccc1)c1cc2cc(Br)ccc2nc1OC (centres undefined)
162	CCOC(=O)c1ccoc1Cn1c(NC2CCN(C(=O)OCC)CC2)nc2ccccc21
89	CC(=NOCCO)c1ccc2ccccc2n1
119 to 121	COC(=O)c1ccc2c(c1)C=CC(=C(Cl)Cl)CO2
177 to 183	C=C(C)c1ccccc1S(=O)(=O)NC(=O)Nc1nc(C)cc(C)n1
113 to 114	Nc1c(C(=O)c2ccoc2)[nH]c2cc(Cl)ccc12
119 to 120	Cc1nccn1-c1nc(-c2ccc(Cl)cc2)c(CCC2=NCCO2)o1
63 to 64	COc1ccccc1OCC(=O)NCCO[N+](=O)[O-]
119 to 122	CC(Br)=C(c1ccc(N(C)C)cc1)c1ccc(N(C)C)cc1
216	NC(=O)c1ccc(N2CCN(CCC3=CCCc4ccccc43)CC2)cc1
